# Assay results published in US20050130989A1, “N-arylheteroaromatic products compositions containing them and use thereof” (Aventis Pharma S. A., priority 2003, published 2005).
# Key:
# tubulin = target: T1, tubulin (Sus scrofa, UniProt P02550+P02554); assay: Evaluation of the inhibition of tubulin polymerization (turbidimetry); type: biochemical, pig; conditions: tubulin 10 μm (1 mg/ml), 37° C., turbidity at 350 nm; concentration that inhibits the rate of polymerization by 50%; read-out: Inhibition of tubulin polymerization IC 50 (μm)
# T1 construct: Tubulin is purified from pig brain according to published methods; from tissue; host or cells: pig brain
# In short: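 Pig brain tubulin (>95% pure), 10 μm in MES pH 6.8/30% glycerol buffer plus 1 mM GTP and 6 mM MgCl2, with compound at 0.5–10 μm added before polymerization. Polymerization triggered by shift from 6° C to 37° C, followed by turbidity at 350 nm; IC50 is 50% inhibition of polymerization rate.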
# HCT116 cells = assay: Inhibition of proliferation of the human colon tumor line HCT116 ([14C]-thymidine incorporation); type: cell-based; conditions: Homo sapiens, HCT-116, 48 h, 48 hours at 37° C., read-out: Inhibition of HCT116 proliferation IC 50 (μm)
# In short: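 HCT116 cells (5000/well) in DMEM with 10% fetal calf serum incubated 48 h at 37° C with [14C]-thymidine (0.1 μCi/well) and compound up to 10 μm (DMSO ≤0.5%). Incorporated radioactivity counted; IC50 is concentration cutting radioactivity by 50% versus untreated control.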
# T1 sequence (P02550 whole entry): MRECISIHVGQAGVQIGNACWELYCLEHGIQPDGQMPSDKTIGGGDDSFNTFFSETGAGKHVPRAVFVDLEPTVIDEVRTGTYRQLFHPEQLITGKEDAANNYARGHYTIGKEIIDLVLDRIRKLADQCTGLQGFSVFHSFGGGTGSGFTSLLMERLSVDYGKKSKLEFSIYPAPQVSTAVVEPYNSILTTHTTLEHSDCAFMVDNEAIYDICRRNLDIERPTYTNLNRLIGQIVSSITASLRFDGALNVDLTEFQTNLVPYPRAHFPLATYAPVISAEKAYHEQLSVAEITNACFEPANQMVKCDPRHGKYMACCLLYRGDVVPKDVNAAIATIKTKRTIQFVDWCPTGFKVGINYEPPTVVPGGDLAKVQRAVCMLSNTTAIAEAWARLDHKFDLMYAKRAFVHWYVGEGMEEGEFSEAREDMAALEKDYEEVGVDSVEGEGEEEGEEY
# T1 sequence (P02554 whole entry): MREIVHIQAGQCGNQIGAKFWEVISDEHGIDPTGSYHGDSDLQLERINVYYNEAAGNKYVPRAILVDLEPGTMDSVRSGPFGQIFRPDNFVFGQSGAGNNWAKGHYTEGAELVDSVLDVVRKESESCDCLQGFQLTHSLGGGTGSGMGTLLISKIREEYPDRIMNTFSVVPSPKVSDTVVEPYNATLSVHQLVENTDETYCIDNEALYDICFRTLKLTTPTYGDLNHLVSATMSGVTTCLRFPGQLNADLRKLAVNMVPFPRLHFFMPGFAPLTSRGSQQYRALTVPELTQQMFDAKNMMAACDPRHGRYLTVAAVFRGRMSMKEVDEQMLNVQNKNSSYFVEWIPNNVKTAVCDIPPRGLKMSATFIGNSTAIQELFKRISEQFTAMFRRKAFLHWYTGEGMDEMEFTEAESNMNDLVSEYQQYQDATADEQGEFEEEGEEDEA
SMILES,IC50 (tubulin) [nM],IC50 (HCT116 cells) [nM]
COc1ccccc1N1CCN(C(=O)c2cc(C)nn2-c2cccc(F)c2)CC1 [3/90],3000,33
"Cc1cc(C(=O)N2CCN(c3cc(Cl)c(Br)cc3Br)CC2)n(-c2ccccc2)n1 [Example E79, [4-(2,4-Dibromo-5-chlorophenyl)piperazin-1-yl](5-methyl-2-phenyl-2H-pyrazol-3-yl)methanone]",2200,1040
Cc1cccc(N2CCN(C(=O)c3cc(C)nn3-c3ccccc3)CC2)n1 [3/150],1100,5.5
Cc1cc(C(=O)N2CCN(c3cccc(F)c3)CC2)n(-c2ccccc2)n1 [3/152],800,6.3
Cc1cccc(-n2nc(C)cc2C(=O)N2CCN(c3cc(Cl)ccc3C)CC2)c1 [3/53],1200,52
COc1ccc(Cl)cc1N1CCN(C(=O)c2cc(C)nn2-c2ccc(F)cc2)CC1 [3/60],1300,8.6
Cc1cccc(-n2nc(C)cc2C(=O)N2CCN(c3cccc(Cl)c3)CC2)c1 [3/31],1300,140
Cc1ccc(-n2nc(C)cc2C(=O)N2CCN(c3cccc(C)c3)CC2)cc1 [3/28],7000,269
Cc1cc(C(=O)N2CCN(c3cccc(C(F)(F)F)c3)CC2)n(-c2ccccc2)n1 [3/8],6500,841
Cc1cc(C(=O)N2CCN(c3cccc4ccccc34)CC2)n(-c2ccc(F)cc2)n1 [3/59],5700,4980
Cc1ccc(-n2nc(C)cc2C(=O)N2CCN(c3cccc(Cl)c3)CC2)cc1 [3/27],4500,217
COc1cccc(-n2nc(C)cc2C(=O)N2CCN(c3cccc(Cl)c3Cl)CC2)c1 [3/139],< 25000,1350
"Cc1cc(C(=O)N2CCN(c3cncc(Cl)c3)CC2)n(-c2ccccc2)n1 [Example E33, [4-(5-Chloro-3-pyridyl)piperazin-1-yl](5-methyl-2-phenyl-2H-pyrazol-3-yl)methanone]",900,8.9
Cc1cc(C(=O)N2CCN(c3ccccc3)CC2)n(-c2cccc(Cl)c2)n1 [3/40],3000,775
"COc1cc(OC)cc(N2CCN(C(=O)c3cc(N4CCOCC4)nn3-c3ccccc3)CC2)c1 [Example E96, [4-(3,5-Dimethoxyphenyl)piperazin-1-yl][5-(morpholin-4-yl)-2-phenyl-2H-pyrazol-3-yl]methanone]",11400,73.3
Cc1cc(C(=O)N2CCN(c3cccc(Cl)c3)CC2)n(-c2ccc(F)cc2)n1 [3/38],6000,338
"Cc1cc(C(=O)N2CCN(c3cccc(NC(=O)CCO)c3)CC2)n(-c2ccccc2)n1 [Example E128, 3-Hydroxy-N-{3-[4-(5-methyl-2-phenyl-2H-pyrazole-3-carbonyl)piperazin-1-yl]-phenyl}propionamide]",3000,120
"Cc1cc(C(=O)N2CCN(c3cc(Cl)ccc3Br)CC2)n(-c2ccccc2)n1 [Example E77, [4-(2-Bromo-5-chlorophenyl)piperazin-1-yl](5-methyl-2-phenyl-2H-pyrazol-3-yl)methanone]",700,26.7
COc1cccc(N2CCN(C(=O)c3cc(C)nn3-c3ccc(Cl)cc3)CC2)c1 [3/73],2500,111
"COc1cc(OC)cc(N2CCN(C(=O)c3cc(N4CCC(O)C4)nn3-c3ccccc3)CC2)c1 (stereo not drawn) [Example E106, [4-(3,5-Dimethoxyphenyl)piperazin-1-yl][5-(3-hydroxypyrrolidin-1-yl)-2-phenyl-2H-pyrazol-3-yl]methanone]",10000,142
Cc1cc(C(=O)N2CCN(c3cccc(Cl)c3)CC2)n(-c2cccc(Cl)c2)n1 [3/34],2500,526
"O=C(c1cc(-c2cccs2)nn1-c1ccccc1)N1CCN(c2cccc(Cl)c2)CC1 [Example E69, [4-(3-Chlorophenyl)piperazin-1-yl][2-phenyl-5-(thiophen-2-yl)-2H-pyrazol-3-yl]methanone]",1700,6150
Cc1cc(C(=O)N2CCN(c3ccccc3C)CC2)n(-c2ccccc2)n1 [3/42],5000,85
Cc1cc(C(=O)N2CCN(c3cccc(Cl)c3)CC2)n(-c2cccc(F)c2)n1 [3/18],2000,28
Cc1cc(C(=O)N2CCN(c3cccc(C)c3C)CC2)n(-c2ccc(F)cc2)n1 [3/148],1500,198
CSc1ccccc1N1CCN(C(=O)c2cc(C)nn2-c2cccc(F)c2)CC1 [3/97],3000,83

SMILES,IC50 (tubulin) [nM],IC50 (HCT116 cells) [nM]
"COc1cc(OC)cc(N2CCN(C(=O)c3cc(/C=N/O)nn3-c3ccccc3)CC2)c1 [Example E94, 5-[4-(3,5-Dimethoxyphenyl)piperazine-1-carbonyl]-1-phenyl-1H-pyrazole-3-carboxaldehyde oxime E]",900,2
Cc1cc(C(=O)N2CCN(c3cccc(Cl)c3)CC2)n(-c2ccccc2F)n1 [3/37],20000,1440
"N#Cc1cccc(-n2nc(C(F)(F)F)cc2C(=O)N2CCN(c3cccc(Cl)c3)CC2)c1 [Example E55, 3-{5-[4-(3-Chlorophenyl)piperazine-1-carbonyl]-3-trifluoromethylpyrazol-1-yl}benzonitrile]",3600,1340
Cc1cccc(-n2nc(C)cc2C(=O)N2CCN(c3ccccc3C)CC2)c1 [3/48],5000,118
CCc1ccccc1N1CCN(C(=O)c2cc(C)nn2-c2cccc(Cl)c2)CC1 [3/68],1500,36
Cc1cccc(-n2nc(C)cc2C(=O)N2CCN(c3ccc(Cl)c(Cl)c3)CC2)c1 [3/113],1200,75
COc1ccc(Cl)cc1N1CCN(C(=O)c2cc(C)nn2-c2ccccc2)CC1 [3/83],1500,6.6
Cc1cc(C(=O)N2CCN(c3cccc(C(F)(F)F)c3)CC2)n(-c2ccc(Cl)cc2)n1 [3/72],7000,143
"Cc1cc(C(=O)N2CCN(c3cccc(Cl)c3)CC2)n(-c2ccccc2C)n1 [Example E45, [4-(3-Chlorophenyl)piperazin-1-yl](5-methyl-2-o-tolyl-2H-pyrazol-3-yl)methanone]",990,10.5
Cc1cccc(N2CCN(C(=O)c3cc(C)nn3-c3cccc(Cl)c3)CC2)c1 [3/123],3300,51
COc1cccc(N2CCN(C(=O)c3cc(C)nn3-c3ccc(C)cc3)CC2)c1 [3/80],5000,78
"Cc1nccn1Cc1cc(C(=O)N2CCN(c3cccc(Cl)c3)CC2)n(-c2ccccc2)n1 [Example E75, [4-(3-Chlorophenyl)piperazin-1-yl][5-(2-methylimidazol-1-ylmethyl)-2-phenyl-2H-pyrazol-3-yl]methanone]",5100,61.2
"Cc1cc(C(=O)N2CCN(c3cccc(Cl)c3)CC2)n(-c2ncccc2C#N)n1 [Example E38, 2-{5-[4-(3-Chlorophenyl)piperazine-1-carbonyl]-3-methylpyrazol-1-yl}nicotinonitrile]",4000,19.6
Cc1cc(C(=O)N2CCN(c3cccc(C(F)(F)F)c3)CC2)n(-c2cccc(Cl)c2)n1 [3/121],3300,51
Cc1cc(C(=O)N2CCN(c3ccccc3)CC2)n(-c2ccccc2)n1 [3/6],4500,177
COc1cccc(N2CCN(C(=O)c3cc(C)nn3-c3ccc(F)cc3)CC2)c1 [3/63],900,19
"Cc1cc(C(=O)N2CCN(c3cccc(Cl)n3)CC2)n(-c2ccccc2)n1 [Example E4, [4-(6-Chloropyrid-2-yl)piperazin-1-yl](5-methyl-2-phenyl-2H-pyrazol-3-yl)-methanone]",1300,4.7
Cc1cc(C(=O)N2CCN(c3ccccc3Cl)CC2)n(-c2ccccc2)n1 [3/112],15000,1520
COc1cccc(-n2nc(C)cc2C(=O)N2CCN(c3cccc(C)c3)CC2)c1 [3/3],1800,87
COc1cccc(N2CCN(C(=O)c3cc(C)nn3-c3ccccc3)CC2)c1 [3/10],2000,25
"COc1cc(OC)cc(N2CCN(C(=O)c3cc(-c4ccoc4)nn3-c3ccccc3)CC2)c1 [Example E90, [4-(3,5-Dimethoxyphenyl)piperazin-1-yl][5-(furan-3-yl)-2-phenyl-2H-pyrazol-3-yl]methanone]",1730,18.8
"O=C(c1cc(Br)nn1-c1ccccc1)N1CCN(c2cccc(Cl)c2)CC1 [Example E65, (5-Bromo-2-phenyl-2H-pyrazol-3-yl)[4-(3-chlorophenyl)piperazin-1-yl]-methanone]",1700,10.6
COc1cccc(N2CCN(C(=O)c3cc(C)nn3-c3ccccc3F)CC2)c1 [3/15],2000,4
CCc1ccccc1N1CCN(C(=O)c2cc(C)nn2-c2ccccc2F)CC1 [3/142],3800,110
"Cc1cc(C(=O)N2CCN(c3cccc([N+](=O)[O-])c3)CC2)n(-c2ccccc2)n1 [Example E5, [4-(3-Nitrophenyl)piperazin-1-yl](5-methyl-2-phenyl-2H-pyrazol-3-yl)-methanone]",800,3
